{"source": "patent US12416052B2", "about": "“Capturing, concentrating, and detecting microbes in a sample using magnetic ionic liquids and recombinase polymerase amplification” (priority 2019, dated 2025)", "key": {"[1]": {"system": "E. coli", "details": "thermal (120° C.-150° C.) disintegration; cited from earlier work"}, "[2]": {"system": "Salmonella typhimurium", "details": "thermal (120° C.-150° C.) disintegration; cited from earlier work"}, "[3]": {"system": "Salmonella enterica subsp. enterica ser. Typhimurium ATCC 14028", "format": "cell-based", "details": "Example 2; 2×T, 1×NaCl back-extraction medium", "protocol": "A universal schematic for MIL-based cell extraction is depicted in FIG. 7B. A 1 mL volume of diluted cell suspension was added to a flat-bottomed 4-mL screw cap glass vial. Fifteen microliters of either the Ni(II) or Dy(III) MIL was added and dispersed into microdroplets by vortex agitation for 30 s. The aqueous phase was decanted following dispersive extraction, and the MIL was subjected to a brief wash step using 1 mL of nuclease-free water (Integrated DNA Technologies, Coralville, IA, USA) to ensure adequate removal of loosely or incidentally bound cells. After washing, release of viable cells from the MIL extraction phase was carried out using a “back-extraction” step accomplished through addition of 1 mL of an ionically-rich nutritive medium comprised of 20 g L^−1 tryptone and 10 g L^−1 NaCl, followed by a 120 s vortex step. After back-extraction, aliquots of the cell-enriched back-extraction medium were enumerated using the track dilution method using 100×100 mm square, gridded TSA, BSA, CA or VRBGA plates.\nFollowing back-extraction, aliquots of the cell-enriched back-extraction medium were serially diluted in 0.1% peptone water and a 10 μL aliquot of each dilution was applied to a separate lane on square plates containing an appropriate agar medium. The plates were then tilted at an approximately 80° angle for 15 min to allow the droplets to travel toward the opposite end of the plate. The plates were incubated for 24 h at 37° C. (TSA, VRBGA), for 48 h at 37° C. (BSA) or for 24 h at 37° C. (CA). Colonies were counted and colony forming units (CFU) were determined. The enrichment factor (EF) for MIL-based extraction was calculated using Equation 1, where CMIL represents the concentration of bacteria in suspension following extraction using the MIL and CS is the initial concentration of bacteria in the sample.\nBecause culture-based methods depend on sample preparation steps that preserve bacterial viability, potential deleterious cytotoxic effects imparted by MIL extractants must be considered. To begin our further study of MIL-bacterial interactions, we selected S. typhimurium ATCC 14028 as a model gram-negative pathogen and the Ni(II) MIL as extractant."}, "[4]": {"assay": "Density of MIL", "format": "physicochemical"}, "[5]": {"system": "S. typhimurium ATCC 14028", "assay": "Exposure of cells and plating on non-selective (TSA) and selective (BSA) agar (viability, injury, toxicity)", "format": "cell-based, Salmonella enterica", "protocol": "To examine whether exposure time to the Ni(II) MIL affected cell viability, MIL-based whole-cell extraction was performed using the Ni(II) MIL, and cell-enriched back-extraction media were enumerated at 0, 5, 10 and 15 min on both TSA and BSA. To evaluate toxicity of the [EMIM^+][SCN^−] IL, one milliliter of diluted S. typhimurium ATCC 14028 cell suspension was added to a 4-mL screw cap glass vial. A 5% (vol/vol) or 50% (vol/vol) aqueous solution of 1-ethyl-3-methylimidazolium thiocyanate (“[EMIM^+][SCN^−]”) (IoLiTec, Tuscaloosa, AL, USA) was added and mixed by vortexing for 30 s. Aliquots were enumerated at 0, 5, 10 and 15 min using TSA and BSA.\nOne milliliter of diluted S. typhimurium ATCC 14028 cell suspension was added to a 4-mL screw cap glass vial. Fifteen microliters of either the Dy(III) MIL or 2-10 μL of 100 mM DyCh solution or 10 mg of the ammonium tetra(hexafluoroaceto)dysprosium salt (15) ([NH4^+][Dy(hfacac)4^−]) (“Dy(III) ammonium salt”) was added and dispersed by vortex agitation for 30 s. Aliquots of the Dy(III) MIL- or Dy(III) ammonium salt-exposed cell suspension were enumerated using square TSA or BSA plates (BD).\nBecause culture-based methods depend on sample preparation steps that preserve bacterial viability, potential deleterious cytotoxic effects imparted by MIL extractants must be considered. To begin our further study of MIL-bacterial interactions, we selected S. typhimurium ATCC 14028 as a model gram-negative pathogen and the Ni(II) MIL as extractant. Briefly, a 1 mL aliquot of TSB was inoculated with 1×10^5 CFU mL^−1 of bacteria and spiked with 15 μL of the Ni(II) MIL, and the general schematic for MIL-based extraction and recovery followed as shown in FIG. 7B. After extraction, 10 μL aliquots of the back-extraction solution were enumerated at 0, 5, 10 and 15 min using TSA and BSA. Average CFU counts were compared to a standard that was not exposed to the Ni(II) MIL. […] To better understand the data in FIG. 8, statistical analyses of Ni(II) MIL capture precision and CFU count variation as a function of MIL exposure time were performed. Variation in MIL capture may stem from inherent randomness of MIL dispersion and coalescence behaviors.\nThe effects of 5% or 50% (vol/vol) aqueous solutions of the [EMIM^+][SCN^−] IL on the viability of the cells were also evaluated. Average CFU counts were compared to a standard not exposed to [EMIM^+][SCN^−]. In our hands, when S. typhimurium was exposed to 50% (vol/vol) solutions of [EMIM^+][SCN^−], no recovery was observed on either TSA or BSA after 5 min of exposure.\nTo gain further insight into this phenomenon, the effect of free elemental dysprosium was evaluated by subjecting the cells to 0.1 mM and 1.0 mM solutions of DyCl3. The cells were exposed to the metal salt solutions for 30 s and subsequently plated on selective and non-selective media.\nWhile the metal did show cytotoxicity, it cannot be completely responsible for the Dy(III) MIL's effect on the cells, as no flocculation was seen and growth was still observed. Since both the Ni(II) and the Dy(III) MILs contain identical cations ([P6,6,6,14^+]), the role of the anion structure was evaluated. The anion of the Dy(III) MIL contains one additional hexafluoroacetylacetonate ligand than the Ni(II) MIL (FIG. 7), making the coordination geometry of the two complexes different. To test the effects of the anion structure, cells were subjected to 10 mg of the Dy(III) ammonium salt. After a 30 second vortex, similar flocculation was observed as when the cells were exposed to the native Dy(III) MIL."}, "[6]": {"system": "Salmonella typhimurium", "details": "plated to a selective agar; cited from earlier work"}}}
{"molecule": "1-butyl-1-methylpyrrolidinium bis(trifluoromethylsulfonyl)imide [[BMPyr^+][Ntf2^−]]", "values": [{"measurement": "cell disruption", "setting": "[1]", "value": "completely disrupted"}, {"measurement": "cell disruption", "setting": "[2]", "value": "completely disrupted"}]}
{"molecule": "CCCCCCCCCCCCCC[P+](CCCCCC)(CCCCCC)CCCCCC.O=C([CH-]C(=O)C(F)(F)F)C(F)(F)F.O=C([CH-]C(=O)C(F)(F)F)C(F)(F)F.O=C([CH-]C(=O)C(F)(F)F)C(F)(F)F.[Co+2]", "note": "[Co(II) MIL]", "values": [{"measurement": "enrichment factors", "setting": "[3]", "value": "approximately 12"}, {"measurement": "density", "setting": "[4]", "value": "~1.3", "unit": "g/mL"}]}
{"molecule": "CCCCCCCCCCCCCC[P+](CCCCCC)(CCCCCC)CCCCCC.O=C([CH-]C(=O)C(F)(F)F)C(F)(F)F.O=C([CH-]C(=O)C(F)(F)F)C(F)(F)F.O=C([CH-]C(=O)C(F)(F)F)C(F)(F)F.O=C([CH-]C(=O)C(F)(F)F)C(F)(F)F.[Dy+3]", "note": "[Dy(III) MIL, [P6,6,6,14^+][Dy(III) (hfacac)4^−]]", "values": [{"measurement": "flocculation and growth after plating", "setting": "[5]; 15 μL added to cell suspension, 30 s vortex", "value": "extensive flocculation and no growth after plating"}]}
{"molecule": "O=C([CH-]C(=O)C(F)(F)F)C(F)(F)F.O=C([CH-]C(=O)C(F)(F)F)C(F)(F)F.O=C([CH-]C(=O)C(F)(F)F)C(F)(F)F.O=C([CH-]C(=O)C(F)(F)F)C(F)(F)F.[Dy+3].[NH4+]", "note": "[Dy(III) ammonium salt, ammonium tetra(hexafluoroaceto)dysprosium salt, reference compound]", "values": [{"measurement": "growth on TSA or BSA", "setting": "[5]; 10 mg, 30 second vortex, 24 h incubation", "value": "no growth was seen on either TSA or BSA"}]}
{"molecule": "[Cl][Dy]([Cl])[Cl]", "note": "[DyCl3, reference compound]", "values": [{"measurement": "viable counts on TSA and BSA", "setting": "[5]; 0.1 mM and 1.0 mM solutions, 30 s exposure", "value": "substantially lower counts were observed on BSA than TSA"}]}
{"molecule": "CCn1cc[n+](C)c1.N#C[S-]", "note": "[[EMIM^+][SCN^−], 1-ethyl-3-methylimidazolium thiocyanate, reference compound]", "values": [{"measurement": "recovery on TSA or BSA", "setting": "[5]; 50% (vol/vol) solution, after 5 min of exposure", "value": "no recovery"}, {"measurement": "recovery on TSA or BSA", "setting": "[5]; exposed as originally described for IL-based extraction from foods (Mester et al., 2010)", "value": "no recovery"}, {"measurement": "inoculated S. typhimurium recovered after IL-mediated matrix lysis", "setting": "[6]", "value": "34-45%"}]}
